Values quoted from earlier work, collected in patent US20220071922A1, “DELIVERY OF HEALTH BENEFITS THROUGH COMPONENT FORMULATION” (Clear Lake Research, LLC, priority 2018, published 2022).

How the values were obtained:
CB2 receptors = CB2 receptors (Homo sapiens, UniProt P34972); details: estimated; times the affinity of CBD
[1] = phytocannabinoids interact with oxygen; without nitrogen overlay
[2] = applied topically

Chain of CB2 receptors (P34972 whole entry): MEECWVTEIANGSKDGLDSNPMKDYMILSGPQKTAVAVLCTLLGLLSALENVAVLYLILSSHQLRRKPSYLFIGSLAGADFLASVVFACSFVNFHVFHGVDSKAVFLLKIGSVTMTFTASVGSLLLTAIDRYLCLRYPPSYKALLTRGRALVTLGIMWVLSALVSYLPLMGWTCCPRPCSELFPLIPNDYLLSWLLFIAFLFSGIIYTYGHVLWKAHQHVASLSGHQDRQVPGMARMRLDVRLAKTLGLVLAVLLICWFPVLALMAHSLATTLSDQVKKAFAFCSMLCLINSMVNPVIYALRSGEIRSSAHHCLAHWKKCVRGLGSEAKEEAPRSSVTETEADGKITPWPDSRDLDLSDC

Row | SMILES | affinity relative to CBD (CB2 receptors) | shelf life [1] | time to significant pain relief impact [2]
1 | CCCCC/C=C\C/C=C\CCCCCCCC(=O)OC(CO)CO [2-Lineoleoyl-glycerol] | ~1,000 times | – | –
2 | CCCCCCCCCCCCCCCC(=O)OC(CO)CO [2-Palmitolyl-glycerol] | ~1,000 times | – | –
3 | C=C(C)[C@@H]1CCC(C)=C[C@H]1c1c(O)cc(CCCCC)cc1O [CBD, cannabidiol] | – | about six | about 30 minutes
